Results published in patent EP0222702A2, “Basic carbonyl derivatives” (CIBA-GEIGY AG, priority 1985, dated 1987).

Columns and labels:
[1] = test system: Noradrenalin-induzierten Vasokonstriktion, isoliert perfundierten Mesenterialgefässen der Ratte; assay: Inhibition of noradrenaline-induced vasoconstriction in isolated perfused rat mesenteric vessels; details: in vitro, read-out: Hemmung der Noradrenalin-induzierten Vasokonstriktion (ICso)
From the text: Die Verbindungen der Formel 1 und deren Salze besitzen wertvolle pharmakologische Eigenschaften, vor allem im cardiovasculären Bereich. Sie wirken als Calcium-Antagonisten und besitzen a-Rezeptoren blockierende sowie Serotonin-antagonistische Eigenschaften, wie sich z.B. in in-vitro-Versuchen an isoliert perfundierten Mesenterialgefässen der Ratte [McGregor, D.: J.Physiol. 177, 21-30, (1965)] als Hemmung der Kalium-,Noradrenalin-und Serotonin-induzierten Vasokonstriktion, beispielsweise unter Verwendung von 2,6-Dimethyl-4-(3-nitrophenyl)-1,4-dihydropyridin-3-carbonsäurmethylester-5-carbonsäure-[2-[4-(p-fluorben- zoyl)-piperidin-1-yl] -1-phenyl]-äthylester (Diastereomerengemisch) bei einer Konzentration von ca. 5 nMol/Liter (IC50) für die Hemmung der Kalium-induzierten Vasokonstriktion, von ca. 4 nMol/Liter (ICso) für die Hemmung der Noradrenalin-induzierten Vasokonstriktion und von ca. 80 nMol/Liter für die Hemmung der Serotonin-induzierten Vasokonstriktion zeigen lässt.

[2] = molecular target: T1, Dihydropyridin-Rezeptoren (Cavia porcellus, UniProt O35505); assay: Displacement of 3H-nitrendipine binding from guinea pig heart membranes; parameters: species or system Meerschweichen; details: membranes of guinea pig hearts, in vitro; read-out: Verdrängung der Bindung von 3H-Nitrendipin, Konzentration (IC50)
T1 construct: from tissue; host or cells: guinea pig heart membranes
From the text: (§1) Ferner lässt sich die Bindung der neuen Verbindungen oder deren Salze an Dihydropyridin-Rezeptoren mittels Verdrängung der Bindung von ^3H-Nitrendipin an Membranen von Meerschweichenherzen in in-vitro-Versuchen [Erne, P. et al,: Biochem. Biophys. Res. Commm., 118, 842-847 (1984)] z.B. unter Verwendung von 2,6-Dimethyl-4-(3-nitrophenyl)-1,4-dihydropyridin-3-carbonsäuremethylester-5-carbonsäure-[2-[4-(p-fluorobenzoyl)-piperidin-1-yl]-1-phenyl] -äthyl ester (Diastereomerengemisch) bei einer Konzentration (IC50) von etwa 0,2 nMol/Liter nachweisen. Ebenso kann die Bindung der erfindungsgemässen Verbindungen an ai-Rezeptoren durch Verdrängung von ^3H-Prazosin aus seinen Bindungsstellen an der Ratten-Cerebralcortex-Membran gemäss der Methodik von P. Greenengass et al., Eur. J. Pharmacol. 55, 323, (1979), bei etwa 300 nMol/Liter in vitro signifikant nachgewiesen werden. Ausserdem lässt sich die Bindung der neuen Verbindungen oder deren Salze an Serotonin-(5HT2)-Rezeptoren mittels Verdrängung der Bindung von ^3H-Ketanserin an Membranen des Rattenhirns [Leysen, J.E. et al.: Molecul. Pharmacol. 21, 301-304, (1982)] z.B. unter Verwendung von 2,6-Dimethyl-4-(3-nitrophenyl)-1,4-dihydropyridin-3-carbonsäuremethylester-5-carbonsäure-[2-[4-(p-fluorbenzoyl)-piperidin-1-yl]-1-phenyl]-äthylester (Diastereomerengemisch) bei einer Konzentration (ICso) von etwa 6,0 nMol/Liter zeigen.

[3] = molecular target: T2, Serotonin-(5HT2)-Rezeptoren (Rattus norvegicus, UniProt P14842); assay: Displacement of 3H-ketanserin binding from rat brain membranes; parameters: species or system Ratten; details: read-out: Verdrängung der Bindung von 3H-Ketanserin, Konzentration (ICso)
T2 construct: from tissue; host or cells: rat brain membranes
From the text: as §1

[4] = test system: renal hypertensiven Ratte; assay: Blood pressure lowering in the renal hypertensive rat; assay type: in vivo; details: 2 hours after p.o. application of ca. 2,0 mg/kg
Method: Die neuen Verbindungen oder deren Salze bewirken ferner eine Hemmung der durch Angiotensin 11, durch elektrische Stimulation oder durch Phenylephrin oder Noradrenalin induzierten pressorischen Effekte an der "pithed rat" [J.S. Gillespie: Br.J.Pharmacoi. 30, 78 (1967)] bei einer Dosis von etwa 2 mg/kg, und eine Hemmung der durch Serotonin induzierten pressorischen Effekte bei einer Dosis von etwa 6 mg/kg. Die neuen Verbindungen oder deren Salze wirken ausserdem antihypertensiv, was sich z.B. durch Senkung des Blutdrucks an der renal hypertensiven Ratte [Goldblatt et al.: J.exp.med. 59, 347 (1934)] zeigen lässt. So kann z.B. 2 Stunden nach p.o-Applikation von ca. 2,0 mg/kg 2,6-Dimethyl-4-(3-nitrophenyl)-1,4-dihydropyridin-3-carbonsäuremethylester-5-carbonsäure-[2-[4-(p-fluorbenzoyl)-piperidin-1-yl]-1-phenyl]-äthylester (Diastereomerengemisch) an der renal hypertensiven Ratte eine Blutdrucksenkung von ca. -70 mm Hg beobachtet werden.

T1 sequence (O35505 whole entry): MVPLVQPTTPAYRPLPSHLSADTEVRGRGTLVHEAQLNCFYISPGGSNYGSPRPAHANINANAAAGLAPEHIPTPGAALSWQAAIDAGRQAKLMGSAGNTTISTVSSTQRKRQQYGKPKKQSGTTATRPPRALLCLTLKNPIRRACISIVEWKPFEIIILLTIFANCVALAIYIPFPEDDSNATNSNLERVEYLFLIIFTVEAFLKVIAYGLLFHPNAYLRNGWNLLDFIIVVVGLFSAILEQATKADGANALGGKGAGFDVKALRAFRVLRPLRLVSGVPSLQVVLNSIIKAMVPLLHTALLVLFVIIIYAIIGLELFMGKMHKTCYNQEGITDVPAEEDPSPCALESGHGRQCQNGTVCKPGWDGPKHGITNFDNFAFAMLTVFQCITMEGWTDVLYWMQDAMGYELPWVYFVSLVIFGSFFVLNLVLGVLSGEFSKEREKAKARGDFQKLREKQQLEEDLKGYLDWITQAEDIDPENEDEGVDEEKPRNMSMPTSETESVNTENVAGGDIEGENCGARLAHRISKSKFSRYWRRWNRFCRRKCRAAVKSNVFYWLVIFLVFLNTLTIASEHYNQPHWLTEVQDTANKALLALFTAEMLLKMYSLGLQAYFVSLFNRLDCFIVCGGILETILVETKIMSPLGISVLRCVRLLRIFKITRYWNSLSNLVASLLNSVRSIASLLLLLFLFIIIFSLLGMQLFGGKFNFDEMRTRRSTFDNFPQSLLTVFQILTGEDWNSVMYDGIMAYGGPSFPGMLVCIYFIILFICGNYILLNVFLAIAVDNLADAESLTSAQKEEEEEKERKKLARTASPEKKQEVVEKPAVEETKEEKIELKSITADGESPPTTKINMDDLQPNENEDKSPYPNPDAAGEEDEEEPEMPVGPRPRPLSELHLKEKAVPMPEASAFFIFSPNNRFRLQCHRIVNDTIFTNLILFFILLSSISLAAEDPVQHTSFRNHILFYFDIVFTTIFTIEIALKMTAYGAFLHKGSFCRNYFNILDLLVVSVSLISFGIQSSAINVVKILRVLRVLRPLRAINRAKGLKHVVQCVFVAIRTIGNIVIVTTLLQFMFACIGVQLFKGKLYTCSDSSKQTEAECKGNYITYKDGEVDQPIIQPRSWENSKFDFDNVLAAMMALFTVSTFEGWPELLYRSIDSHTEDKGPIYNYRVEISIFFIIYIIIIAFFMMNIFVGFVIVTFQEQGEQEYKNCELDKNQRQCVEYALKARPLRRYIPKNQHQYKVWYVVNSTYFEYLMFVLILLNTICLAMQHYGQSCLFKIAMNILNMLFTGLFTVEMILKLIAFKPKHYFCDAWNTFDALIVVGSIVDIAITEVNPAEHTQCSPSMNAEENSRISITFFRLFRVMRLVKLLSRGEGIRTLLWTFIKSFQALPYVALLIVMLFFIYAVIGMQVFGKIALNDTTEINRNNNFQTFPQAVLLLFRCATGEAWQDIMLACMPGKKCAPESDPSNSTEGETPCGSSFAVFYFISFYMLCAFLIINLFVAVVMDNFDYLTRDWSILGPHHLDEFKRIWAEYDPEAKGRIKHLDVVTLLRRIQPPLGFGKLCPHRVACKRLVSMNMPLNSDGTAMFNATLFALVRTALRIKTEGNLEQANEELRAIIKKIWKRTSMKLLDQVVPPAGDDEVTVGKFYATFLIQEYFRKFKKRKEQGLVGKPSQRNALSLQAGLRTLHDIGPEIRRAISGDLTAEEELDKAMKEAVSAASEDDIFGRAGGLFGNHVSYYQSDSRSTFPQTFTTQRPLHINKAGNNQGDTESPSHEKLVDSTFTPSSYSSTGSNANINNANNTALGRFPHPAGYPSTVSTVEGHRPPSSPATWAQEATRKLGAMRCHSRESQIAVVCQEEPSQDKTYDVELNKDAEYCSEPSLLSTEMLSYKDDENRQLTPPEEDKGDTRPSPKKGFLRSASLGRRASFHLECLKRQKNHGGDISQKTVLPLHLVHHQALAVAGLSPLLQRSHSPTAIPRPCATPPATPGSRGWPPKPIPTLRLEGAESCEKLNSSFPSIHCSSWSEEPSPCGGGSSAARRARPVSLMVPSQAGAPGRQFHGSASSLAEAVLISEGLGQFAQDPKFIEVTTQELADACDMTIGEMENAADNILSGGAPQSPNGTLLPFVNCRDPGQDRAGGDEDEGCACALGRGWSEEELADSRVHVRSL
T2 sequence (P14842 whole entry): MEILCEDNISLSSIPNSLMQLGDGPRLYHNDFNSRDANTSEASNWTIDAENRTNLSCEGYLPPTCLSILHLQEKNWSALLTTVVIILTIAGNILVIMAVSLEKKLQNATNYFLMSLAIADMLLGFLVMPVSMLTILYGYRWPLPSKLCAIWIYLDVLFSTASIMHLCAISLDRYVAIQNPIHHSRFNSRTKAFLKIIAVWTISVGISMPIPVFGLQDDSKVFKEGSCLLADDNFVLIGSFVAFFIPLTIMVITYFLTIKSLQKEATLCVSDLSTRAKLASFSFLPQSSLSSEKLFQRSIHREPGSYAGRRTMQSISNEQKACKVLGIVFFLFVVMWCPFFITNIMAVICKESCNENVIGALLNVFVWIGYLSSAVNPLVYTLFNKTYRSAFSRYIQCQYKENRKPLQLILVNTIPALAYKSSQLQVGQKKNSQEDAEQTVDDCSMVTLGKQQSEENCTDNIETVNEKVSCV

COC(=O)C1=C(C)NC(C)=C(C(=O)OC(CN2CCC(C(=O)c3ccc(F)cc3)CC2)c2ccccc2)C1c1cccc([N+](=O)[O-])c1 (stereo not shown) [Beispiel 1, 2,6-Dimethyl-4-(3-nitrophenyl)-1,4-dihydropyridin-3-carbonsäuremethylester-5-carbonsäure-[2-[4-(p-fluorbenzoyl)-piperidin-1-yl]-1-phenyl]-äthylester]
IC50 [1]: ~4 nM
IC50 [2]: ~0.2 nM
IC50 [3]: ~6 nM
Blutdrucksenkung [4]: ca. -70 mm Hg
